According to ChEMBL document CHEMBL2062457, “Synthesis and antibacterial activity of desosamine-modified macrolide derivatives” (2012):
In brackets after ≈: the same amount, converted by molar mass.

Key:
Format in all cases: functional
Staphylococcus aureus [1] = experiment: Antibacterial activity against macrolide-susceptible Staphylococcus aureus ATCC 29213
Staphylococcus aureus [2] = experiment: Antibacterial activity against macrolide-resistant Staphylococcus aureus ATCC 33591 constitutively expressing ermA
Staphylococcus aureus [3] = experiment: Ratio of MIC for macrolide-resistant Staphylococcus aureus ATCC 33591 to MIC for macrolide-susceptible Staphylococcus aureus ATCC 29213

SMILES | MIC (Staphylococcus aureus [1]) [µg/mL] | MIC (Staphylococcus aureus [2]) [µg/mL] | Ratio (Staphylococcus aureus [3])
CC[C@H]1OC(=O)[C@H](C)C(=O)[C@H](C)[C@@H](O[C@@H]2O[C@H](C)C[C@H](N(C)C)[C@H]2O)[C@](C)(OC)C[C@@H](C)C(=O)[C@H](C)[C@H]2N(CCCCn3cnc(-c4cccnc4)c3)C(=O)O[C@]12C [TELITHROMYCIN] | 0.08 (≈ 0.0985 µM) | > 256 | 
CC[C@H]1OC(=O)[C@H](C)[C@@H](O[C@H]2C[C@@](C)(OC)[C@@H](O)[C@H](C)O2)[C@H](C)[C@@H](O[C@@H]2O[C@H](C)C[C@H](NC)[C@H]2O)[C@](C)(O)C[C@@H](C)C(=O)[C@H](C)[C@@H](O)[C@]1(C)O | 8 (≈ 11.1 µM) | > 256 | 
CC[C@H]1OC(=O)[C@H](C)C(=O)[C@H](C)[C@@H](O[C@H]2C[C@@H](N(C)C)C[C@@H](C)O2)[C@](C)(OC/C=C/c2cnc3ccccc3c2)C[C@@H](C)C(=O)[C@H](C)[C@H]2NC(=O)O[C@@]21C | 4 (≈ 5.33 µM) | > 256 | 
CCCCN(C)[C@@H]1C[C@H](O[C@@H]2[C@@H](C)C(=O)[C@@H](C)C(=O)O[C@H](CC)[C@@]3(C)OC(=O)N(CCCCn4cnc(-c5cccnc5)c4)[C@@H]3[C@@H](C)C(=O)[C@H](C)C[C@@]2(C)OC)O[C@H](C)C1 | 64 (≈ 76.4 µM) | > 256 | 
CC[C@H]1OC(=O)[C@H](C)[C@@H](O[C@H]2C[C@@](C)(OC)[C@@H](O)[C@H](C)O2)[C@H](C)[C@@H](O[C@@H]2O[C@H](C)C[C@H](N(C)C(=N)N)[C@H]2O)[C@](C)(OC)C[C@@H](C)C(=O)[C@H](C)[C@@H](O)[C@]1(C)O | 32 (≈ 41.2 µM) | > 256 | 
CC[C@H]1OC(=O)[C@H](C)[C@@H](O[C@H]2C[C@@](C)(OC)[C@@H](O)[C@H](C)O2)[C@H](C)[C@@H](O[C@H]2C[C@@H](N(C)C)C[C@@H](C)O2)[C@](C)(OC)C[C@@H](C)C(=O)[C@H](C)[C@@H](O)[C@]1(C)O | 64 (≈ 87.4 µM) | > 256 | 
CC[C@H]1OC(=O)[C@H](C)C(=O)[C@H](C)[C@@H](O[C@@H]2O[C@H](C)C[C@H](N(C)C)[C@H]2O)[C@](C)(OCC=Cc2cnc3ccccc3c2)C[C@@H](C)C(=O)[C@H](C)[C@H]2NC(=O)O[C@@]21C [CETHROMYCIN] | 0.0075 (≈ 0.00979 µM) | > 256 | >10000
CC[C@H]1OC(=O)[C@H](C)[C@@H](O[C@H]2C[C@@](C)(OC)[C@@H](O)[C@H](C)O2)[C@H](C)[C@@H](O[C@H]2C[C@@H](N(C)C)C[C@@H](C)O2)[C@](C)(O)C[C@@H](C)C(=O)[C@H](C)[C@@H](O)[C@]1(C)O | 64 (≈ 89.1 µM) | > 256 | 
CCCCN(C)[C@H]1C[C@@H](C)O[C@@H](O[C@@H]2[C@@H](C)C(=O)[C@@H](C)C(=O)O[C@H](CC)[C@@]3(C)OC(=O)N(CCCCn4cnc(-c5cccnc5)c4)[C@@H]3[C@@H](C)C(=O)[C@H](C)C[C@@]2(C)OC)[C@@H]1O | 0.5 (≈ 0.585 µM) | > 256 | 
CC[C@H]1OC(=O)[C@H](C)C(=O)[C@H](C)[C@@H](O[C@@H]2O[C@H](C)C[C@H](NC)[C@H]2O)[C@](C)(OC)C[C@@H](C)C(=O)[C@H](C)[C@H]2N(CCCCn3cnc(-c4cccnc4)c3)C(=O)O[C@]12C | 16 (≈ 20.1 µM) | > 256 | 
CC[C@H]1OC(=O)[C@H](C)C(=O)[C@H](C)[C@@H](O[C@H]2C[C@@H](N(C)C)C[C@@H](C)O2)[C@](C)(OC)C[C@@H](C)C(=O)[C@H](C)[C@H]2N(CCCCn3cnc(-c4cccnc4)c3)C(=O)O[C@]12C | 8 (≈ 10.1 µM) | > 256 | 
CC[C@H]1OC(=O)[C@H](C)[C@@H](O[C@H]2C[C@@](C)(OC)[C@@H](O)[C@H](C)O2)[C@H](C)[C@@H](O[C@@H]2O[C@H](C)C[C@H](N(C)C)[C@H]2O)[C@](C)(O)C[C@@H](C)C(=O)[C@H](C)[C@@H](O)[C@]1(C)O [ERYTHROMYCIN] | 0.5 (≈ 0.681 µM) | > 256 | 
CC[C@H]1OC(=O)[C@H](C)[C@@H](O[C@H]2C[C@@](C)(OC)[C@@H](O)[C@H](C)O2)[C@H](C)[C@@H](O[C@@H]2O[C@H](C)C[C@H](NC)[C@H]2O)[C@](C)(OC)C[C@@H](C)C(=O)[C@H](C)[C@@H](O)[C@]1(C)O | 4 (≈ 5.45 µM) | > 256 | 
